Source: US6785989B2, “Methods and apparatus for removal of wrinkles from fabrics” (The Procter & Gamble Company, priority 2000, dated 2004)

Test: Perfume component interaction with cyclodextrin (CD interaction)
Format: physicochemical
Conditions: perfume component complexing with cyclodextrin
From the text: The following table illustrates the molecular weight property of some of the preferred perfume versus non-preferred perfume components.

| Compound | CD interaction |
| --- | --- |
| CC(C=O)Cc1ccc(C(C)C)cc1 (centres unmarked) [Cymal] | strong |
| CCOC(=O)c1ccccc1C(=O)OCC [Diethyl Phthalate] | weak |
| CC(=O)OC1CC2CC1C1CC=CC21 (centres unmarked) [Flor Acetate] | strong |
| CCC(=O)OC1CC2CC1C1CC=CC21 (centres unmarked) [Frutene] | strong |
| CC1COCc2cc3c(cc21)C(C)(C)C(C)C3(C)C (centres unmarked) [Galaxolide] | weak |
| CCCCCCOC(=O)c1ccccc1O [Hexyl Salicylate] | weak |
| CCCCCCC(C=O)=Cc1ccccc1 [Hexyl cinnamic Aldehyde] | weak |
| CC(=O)C1(C)CC2=C(CCCC2(C)C)CC1C (centres unmarked) [Iso-E Super] | weak |
| CCCCCCCCCCCCCC(=O)OC(C)C [Iso-propyl Myristate] | weak |
| CC(=O)C(C)=C(C)C(C)C(C)(C)C (centres unmarked) [Koavone] | strong |
| CC(C=O)Cc1ccc(C(C)(C)C)cc1 (centres unmarked) [Lilial, p-t-bucinal] | strong |
| CC(C)(O)CCCC1=CCC(C=O)CC1 (centres unmarked) [Lyral] | weak |
| CCCCCC1C(=O)CCC1CC(=O)OC (centres unmarked) [Methyl Dihydro Jasmonate] | weak |
| O=C(Cc1ccccc1)OCCc1ccccc1 [Phenyl-Ethyl-Phenyl Acetate] | weak |
| CC(=O)OC(C)(C)C1CC=C(C)CC1 (centres unmarked) [Terpinyl Acetate] | significant |
| CCC(C)(O)CCCC(C)C (centres unmarked) [Tetrahydrolinalol] | significant |
| CC(=O)OC1CCC(C(C)(C)C)CC1 (centres unmarked) [Vertenex, para-tert-butylcyclohexyl acetate] | strong |
| CC(=O)/C=C/C1C(C)=CCCC1(C)C (centres unmarked) [a-ionone] | strong |
| a-Me Ionone | strong |

Test: not given
Conditions: cited from earlier work

| Compound | solubility in water |
| --- | --- |
| OCCOc1ccccc1 [2-phenoxyethanol] | about 2.67% |
| OCCc1ccccc1 [2-phenylethanol] | about 2% |
| O=[N+]([O-])C1(Br)COCOC1 [Bronidox L, 5-bromo-5-nitro-1,3-dioxane] | about 0.46% |
| CC1(C)C(=O)N(CO)C(=O)N1CO [DMDM hydantoin, 1,3-bis(hydroxymethyl)-5,5-dimethyl-2,4-imidazolidinedione] | more than 50% |
| ClC=CC[N+]12CN3CN(CN(C3)C1)C2.[Cl-] [Dowicil 200, 1-(3-Chlorallyl)-3,5,7-triaza-1-azoniaadamantane chloride] | freely soluble |
| OCc1ccccc1 [benzyl alcohol] | about 4% |
| [H]/N=C(\N/C(=N/[H])NCCCCCCNC(=N)NC(=N)Nc1ccc(Cl)cc1)Nc1ccc(Cl)cc1 [chlorhexidine diacetate, 1,1′-hexamethylene bis(5-(p-chlorophenyl)biguanide), reference compound] | about 1.8% |
| [H]/N=C(\N/C(=N/[H])NCCCCCCNC(=N)NC(=N)Nc1ccc(Cl)cc1)Nc1ccc(Cl)cc1 [chlorhexidine digluconate, 1,1′-hexamethylene bis(5-(p-chlorophenyl)biguanide), reference compound] | about 70% |
| CC(C)(O)C(Cl)(Cl)Cl [chlorobutanol, 1,1,1-Trichloro-2-methylpropan-2-ol] | about 0.8% |
| [Na+].[O-][n+]1ccccc1[S-] [sodium pyrithione] | about 50% |
